In patent US6337327B1, “Pharmaceutical compositions comprising an aldose reductase inhibitor and an ace inhibitor” (Zeneca Limited, priority 1997, dated 2002):

Test system: rats rendered diabetic by streptozotocin (sciatic nerve branch to tibialis anterior muscle)
Test: Motor nerve conduction velocity in streptozotocin-diabetic rats
Assay type: in vivo, Male Sprague-Dawley rats
Conditions: lisinopril 0.3 mg/kg/day; for Nerve conduction velocity (mean±SEM): diabetic rats, 6 weeks untreated diabetes then 2 weeks treatment in the drinking water, ZD5522 0.25 mg/kg/day, or both, nondiabetic control 64.4±0.5, untreated diabetic 50.9±0.5; for increase in conduction velocity: single-agent treatment for 2 weeks vs untreated diabetic rats, ZD5522 0.25 mg/kg/day
Method: Male Sprague-Dawley rats, 19 weeks old at the start of the study, were divided into non-diabetic animals (normal control group) and animals rendered diabetic by intraperitoneal administration of streptozotocin, (40-45 mg/kg, freshly dissolved in sterile saline). Diabetes was verified 24 hours later by estimating hyperglycemia and glucosuria (Visidex II and Diastix; Ames, Slough, UK). Diabetic rats were tested weekly and weighed daily. […] Samples were taken from the tail vein or carotid artery after final experiments for plasma glucose determination (GOD-Perid method; Boehringer Mannheim, Mannheim, Germany). After 6 weeks of untreated diabetes, groups of rats were treated for a further 2 weeks with lisinopril (0.3 mg/kg/day) or the aldose reductase inhibitor, ZD5522 (0.25 mg/kg/day) or a combination of the two drugs, dissolved in the drinking water.
At the end of the treatment period, rats were anesthetized with thiobutabarbitone by intraperitoneal injection (50-100 mg/kg). The trachea was cannulated for artificial ventilation and a cartoid cannula was used to monitor mean systemic blood pressure. Motor nerve conduction velocity was measured (as previously described by Cameron et al, Diabetologia, 1993, Vol. 36, pages 299-304) between sciatic notch and knee in the nerve branch to tibialis anterior muscle, which is representative of the whole sciatic nerve in terms of susceptibility to diabetes and treatment effects.

| Compound | Nerve conduction velocity (mean±SEM) [m/s] | increase in conduction velocity [%] |
| --- | --- | --- |
| Cc1ccccc1CC(=O)Nc1cc(C)c(S(=O)(=O)C[N+](=O)[O-])c(C)c1 [ZD5522, 3′,5′-dimethyl-4′-nitromethylsulfonyl-2-(2-tolyl)acetanilide] | 53.7±0.3 | ~20 |
| NCCCC[C@H](N[C@@H](CCc1ccccc1)C(=O)O)C(=O)N1CCC[C@H]1C(=O)O [lisinopril] | 53.9±0.6 | ~20 |
